Data on 15 molecules can be found in patent US10155743B2, “Glutarimide derivatives, use thereof, pharmaceutical composition based thereon and methods for producing glutarimide derivatives” (OBSCHESTVO S OGRANICHENNOI OTVETSTVENNOSTIYU …, priority 2013, dated 2018).

Read-outs that look alike come from different tables or passages of the source.

This assay deals with human virus hRSV adapted to the growth in mouse lungs. Put plainly: animal or person. It is filed as in vivo. The settings on record: for Body weight of the mice after infection with hRSV, Day 5 / Body weight of the mice after infection with hRSV, Day 7: 30 mg/kg orally once daily for 5 days from 24 h after infection, M ± SD, n = 6; for hRSV viral titer in mouse lungs, Day 5, lg / hRSV viral titer in mouse lungs, Day 7, lg: 30 mg/kg orally once daily for 5 days, 10% lung suspension titrated in Hep-2 cell culture, TCID; for log reduction at 30 mg/kg: human respiratory syncytial virus, po, 120 h.

[1] abbreviates: read-out: Suppression of the reproduction of hRSV virus in mouse lungs, Day 5, Δlg.
Where [2] appears, read: read-out: Suppression of the reproduction of hRSV virus in mouse lungs, Day 7, Δlg.

Turning to `O=C1CCCC(=O)N1CCC1CCNCC1` [Compound 123], the “Body weight of the mice after infection with hRSV, Day 5” value (“Body weight of the mice … Day 5” below) was 15.87 ± 0.20; the “Body weight of the mice after infection with hRSV, Day 7” value (shortened to “Body weight of the mice … Day 7”) stood at 17.55 ± 0.53; the “hRSV viral titer in mouse lungs, Day 5, lg” value (“hRSV viral titer … Day 5, lg” for short) is reported as 2.50 ± 0.43 lg; the “hRSV viral titer in mouse lungs, Day 7, lg” value (“hRSV viral titer … Day 7, lg” below) is 1.33 ± 0.19 lg. The log reduction at 30 mg/kg under setting [1] was determined as 2.1 ± 0.43. For the same molecule, the log reduction at 30 mg/kg under setting [2] is 2.62 ± 0.5.
As for `O=C1CCCC(=O)N1CCc1nccs1` [Compound 6], the “Body weight of the mice … Day 5” value stood at 16.47 ± 0.26 and the “Body weight of the mice … Day 7” value was determined as 17.02 ± 0.29.
For the molecule `O=C1CCCC(=O)N1CCc1nc2ccccc2[nH]1` [Compound 124], the “Body weight of the mice … Day 5” value is on record as 16.43 ± 0.26; the “Body weight of the mice … Day 7” value is listed as 16.37 ± 0.43; the “hRSV viral titer … Day 5, lg” value was found to be 2.46 ± 0.22 lg; the “hRSV viral titer … Day 7, lg” value amounted to 0.83 ± 0.37 lg. Moreover, under setting [1], the log reduction at 30 mg/kg was 2.14 ± 0.22. The log reduction at 30 mg/kg under setting [2] came to 2.97 ± 0.37.
For `O=C1CCCC(=O)N1CCC1CCCCN1` (stereo not shown) [Compound 122], the “Body weight of the mice … Day 5” value worked out at 16.93 ± 0.32; the “Body weight of the mice … Day 7” value is on record as 16.37 ± 0.21; the “hRSV viral titer … Day 5, lg” value stood at 3.04 ± 0.44 lg; the “hRSV viral titer … Day 7, lg” value is listed as 1.75 ± 0.41 lg. Further, the log reduction at 30 mg/kg under setting [1] was 1.56 ± 0.44. The log reduction at 30 mg/kg under setting [2] is 1.88 ± 0.47.
As for `O=C1CCCC(=O)N1CCC1CCNC1` (stereo not shown) [Compound 120], the “Body weight of the mice … Day 5” value stood at 16.12 ± 0.27; the “Body weight of the mice … Day 7” value stood at 17.22 ± 0.20; the “hRSV viral titer … Day 5, lg” value amounted to 3.04 ± 0.47 lg; the “hRSV viral titer … Day 7, lg” value was 1.50 ± 0.25 lg. Further, under setting [1], the log reduction at 30 mg/kg came out at 1.56 ± 0.47. In addition, under setting [2], the log reduction at 30 mg/kg was found to be 2.05 ± 0.25.
Take `O=C1CCCC(=O)N1CCc1ncc[nH]1` [Compound 8]: the “Body weight of the mice … Day 5” value was 15.18 ± 0.18 and the “Body weight of the mice … Day 7” value is 17.13 ± 0.27.
As to `O=C1CCCC(=O)N1CCN1CCOCC1` [Compound 117], the “Body weight of the mice … Day 5” value was determined as 16.07 ± 0.12; the “Body weight of the mice … Day 7” value is 16.48 ± 0.28; the “hRSV viral titer … Day 5, lg” value was 3.00 ± 0.41 lg; the “hRSV viral titer … Day 7, lg” value turned out to be 1.46 ± 0.24 lg. In addition, under setting [1], the log reduction at 30 mg/kg was 1.6 ± 0.41. Further, under setting [2], the log reduction at 30 mg/kg worked out at 2.22 ± 0.34.
Turning to `O=C1CCCC(=O)N1CCC1CCCN1` (stereo not shown) [Compound 4], the “Body weight of the mice … Day 5” value was determined as 16.77 ± 0.20; the “Body weight of the mice … Day 7” value is 17.08 ± 0.32; the “hRSV viral titer … Day 5, lg” value was 2.58 ± 0.51 lg; the “hRSV viral titer … Day 7, lg” value was 1.38 ± 0.24 lg. The log reduction at 30 mg/kg under setting [1] worked out at 2.02 ± 0.51. In addition, the log reduction at 30 mg/kg under setting [2] came to 2.58 ± 0.53.
For `Cn1cnc(CCN2C(=O)CCCC2=O)c1` [Compound 5], the “Body weight of the mice … Day 5” value is listed as 16.02 ± 0.16; the “Body weight of the mice … Day 7” value is 17.78 ± 0.26; the “hRSV viral titer … Day 5, lg” value is 2.17 ± 0.37 lg; the “hRSV viral titer … Day 7, lg” value is 0.88 ± 0.31 lg. For the same molecule, the log reduction at 30 mg/kg under setting [1] amounted to 2.43 ± 0.37. The log reduction at 30 mg/kg under setting [2] worked out at 2.93 ± 0.31.
Regarding `O=C1CCCC(=O)N1CCc1nc2ccccc2s1` [Compound 7, 1-[2-(1H-benzothiazol-2-yl)ethyl]piperidine-2-dione], the “Body weight of the mice … Day 5” value came to 17.17 ± 0.26 and the “Body weight of the mice … Day 7” value amounted to 18.53 ± 0.55.
The like results for `O=C1CCCC(=O)N1CCc1cccnc1` [Compound 10, 1-[2-(1H-pyridyl-3-yl)ethyl]piperidine-2,6-dione] were, in that order, 16.18 ± 0.29 and 16.53 ± 0.20.
With `CC1(C)CC(=O)N(CCc2cnc[nH]2)C(=O)C1` [Compound 3], the “Body weight of the mice … Day 5” value stood at 16.65 ± 0.28; the “Body weight of the mice … Day 7” value is 17.32 ± 0.25; the “hRSV viral titer … Day 5, lg” value is 3.04 ± 0.42 lg; the “hRSV viral titer … Day 7, lg” value was determined as 1.46 ± 0.17 lg. In addition, the log reduction at 30 mg/kg under setting [1] amounted to 1.56 ± 0.42. Further, the log reduction at 30 mg/kg under setting [2] worked out at 2.18 ± 0.28.
In the case of `O=C1CCCC(=O)N1CCC1CCCNC1` (stereo not shown) [Compound 121], the “Body weight of the mice … Day 5” value is on record as 16.35 ± 0.20; the “Body weight of the mice … Day 7” value was 17.38 ± 0.29; the “hRSV viral titer … Day 5, lg” value is 3.08 ± 0.47 lg; the “hRSV viral titer … Day 7, lg” value was determined as 1.50 ± 0.14 lg. Further, the log reduction at 30 mg/kg under setting [1] amounted to 1.52 ± 0.47. For the same molecule, under setting [2], the log reduction at 30 mg/kg stood at 2.09 ± 0.22.
Regarding `O=C1CCCC(=O)N1CCc1ccncc1` [Compound 9], the “Body weight of the mice … Day 5” value worked out at 15.75 ± 0.33 and the “Body weight of the mice … Day 7” value came to 16.18 ± 0.29.
Turning to `O=C1CCCC(=O)N1CCc1cnc[nH]1` [Compound 1, 1-(2-(1H-imidazol-4-yl)ethyl)piperidine-2,6-dione], the “Body weight of the mice … Day 5” value is given as 16.43 ± 0.14; the “Body weight of the mice … Day 7” value came to 17.98 ± 0.26; the “hRSV viral titer … Day 5, lg” value was determined as 2.88 ± 0.59 lg; the “hRSV viral titer … Day 7, lg” value is reported as 1.46 ± 0.17 lg. Besides, the log reduction at 30 mg/kg under setting [1] amounted to 1.73 ± 0.59. Besides, under setting [2], the log reduction at 30 mg/kg amounted to 2.34 ± 0.17.
